Experimental data as given in patent US11447501B2, “Biphenyl-containing diarylpyrimido compounds, pharmaceutically-acceptable salts thereof, composition and preparation thereof” (Fudan University, priority 2019, dated 2022).

Tests used:
[1] = Cytotoxicity in uninfected MT-4 cells (MTT assay); type: cell-based; conditions: human, concentration that reduces normal uninfected MT-4 cell viability by 50%
[2] = clinical use; cited from earlier work

Row | melting point [°C] | SMILES | further results
1 | 275.2 to 276.8 | Cc1cc(C#N)ccc1-c1ccc(Oc2nc(Nc3ccc(C#N)cc3)nc3ccsc23)c(F)c1 [Example 13] | 
2 |  | O=C1Nc2ccc(Cl)cc2[C@@](C#CC2CC2)(C(F)(F)F)O1 [EFV, Efavirenz] | CC50 at 7 d [1]: > 6.34 µM
3 | 258.8 to 260.3 | N#Cc1ccc(Nc2nc(Oc3ccc(-c4ccc(C#N)c(F)c4)cc3)c3sccc3n2)cc1 [Example 2] | 
4 | 274.3 to 275.8 | Cc1cc(C#N)ccc1-c1ccc(Oc2nc(Nc3ccc(C#N)cc3)nc3ccsc23)cc1C [Example 17] | 
5 | 295.3 to 297 | N#Cc1ccc(Nc2nc(Oc3ccc(-c4ccc(C#N)cc4F)cc3F)c3sccc3n2)cc1 [Example 7] | 
6 |  | Cc1ccnc2c1NC(=O)c1cccnc1N2C1CC1 [NVP, Nevirapine] | CC50 at 7 d ([1]; uninfected MT-4 cells): > 15 µM
7 | 272.5 to 273.6 | N#Cc1ccc(Nc2nc(Oc3ccc(-c4ccc(C#N)cc4F)cc3)c3sccc3n2)cc1 [Example 1] | 
8 | 299.3 to 300.2 | Cc1cc(-c2ccc(C#N)c(F)c2)ccc1Oc1nc(Nc2ccc(C#N)cc2)nc2ccsc12 [Example 10] | 
9 | 278.4 to 279.5 | Cc1cc(C#N)ccc1-c1ccc(Oc2nc(Nc3ccc(C#N)cc3)nc3ccsc23)cc1 [Example 5] | 
10 | 268.5 to 271 | Cc1cc(-c2ccc(C#N)cc2F)ccc1Oc1nc(Nc2ccc(C#N)cc2)nc2ccsc12 [Example 9] | 
11 | > 300 | N#Cc1ccc(Nc2nc(Oc3ccc(-c4ccc(C#N)c(F)c4)cc3F)c3sccc3n2)cc1 [Example 8] | 
12 | 262.4 to 263.7 | Cc1cc(-c2ccc(C#N)cc2C)ccc1Oc1nc(Nc2ccc(C#N)cc2)nc2ccsc12 [Example 15] | 
13 | 246.3 to 247.7 | N#Cc1ccc(Nc2nc(Oc3ccc(-c4ccc(C#N)c(Cl)c4)cc3)c3sccc3n2)cc1 [Example 4] | 
14 | > 300 | N#Cc1ccc(Nc2nc(Oc3ccc(-c4ccc(C#N)cc4Cl)cc3)c3sccc3n2)cc1 [Example 3] | 
15 | 256.5 to 257.9 | Cc1cc(-c2ccc(Oc3nc(Nc4ccc(C#N)cc4)nc4ccsc34)cc2)ccc1C#N [Example 6] | 
16 | 252.5 to 254.2 | Cc1cc(-c2ccc(Oc3nc(Nc4ccc(C#N)cc4)nc4ccsc34)c(F)c2)ccc1C#N [Example 14] | 
17 | 264.9 to 266.2 | Cc1cc(-c2ccc(Oc3nc(Nc4ccc(C#N)cc4)nc4ccsc34)cc2C)ccc1C#N [Example 18] | 
18 | 259.4 to 261.1 | Cc1cc(-c2ccc(Oc3nc(Nc4ccc(C#N)cc4)nc4ccsc34)c(C)c2)ccc1C#N [Example 16] | 
19 |  | Cc1cc(C#N)cc(C)c1Oc1nc(Nc2ccc(C#N)cc2)nc(N)c1Br [ETR, Etravirine] | CC50 at 7 d ([1]; uninfected MT-4 cells): > 4.61 µM; response rate [2]: 36.5%
